PMC12233266, “Loss of serine/threonine protein phosphatase 6 severely impairs sexual stage development in malaria parasite Plasmodium berghei” (PLOS Pathogens, 2025)

Target: T1, Ser/Thr protein phosphatase 6 (PbPP6) (Plasmodium berghei, UniProt A0A509AFY8)
T1 construct: gene PBANKA_0412100; full-length PbPP6 (308 aa), C-terminal His tag, expressed in Pichia GS115 (rPbPP6)
T1 sequence (A0A509AFY8 1-308): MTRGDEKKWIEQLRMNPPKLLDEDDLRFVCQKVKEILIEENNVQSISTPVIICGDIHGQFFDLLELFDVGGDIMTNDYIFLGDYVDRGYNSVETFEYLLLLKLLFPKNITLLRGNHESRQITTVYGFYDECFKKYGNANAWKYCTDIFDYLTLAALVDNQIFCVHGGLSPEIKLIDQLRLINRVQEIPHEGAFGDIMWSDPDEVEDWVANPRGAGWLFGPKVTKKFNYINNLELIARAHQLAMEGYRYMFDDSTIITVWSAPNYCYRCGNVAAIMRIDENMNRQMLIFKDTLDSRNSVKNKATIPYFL
Test: ProFluor Ser/Thr PPase fluorescence assay (R110 substrate) with purified recombinant enzyme, dose-response
Type: biochemical

C=C1[C@@H](O)[C@@H]2O[C@]3(CC[C@H](/C=C/[C@@H](C)[C@@H]4CC(C)=C[C@@]5(O[C@H](C[C@@](C)(O)C(=O)O)CC[C@H]5O)O4)O3)CC[C@H]2O[C@@H]1[C@@H](O)C[C@H](C)[C@H]1O[C@@]2(CCCCO2)CC[C@H]1C [OKA, okadaic acid]
IC50: 0.86 nM
